Reference: patent publication US11390616B2 (BRISTOL-MYERS SQUIBB COMPANY, priority 2015, dated 2022)

Molecular target: T1, human APJ receptor (Homo sapiens, UniProt P35414)
T1 construct: expressed in transfected cells; host or cells: HEK293
T1 sequence (P35414 1-380): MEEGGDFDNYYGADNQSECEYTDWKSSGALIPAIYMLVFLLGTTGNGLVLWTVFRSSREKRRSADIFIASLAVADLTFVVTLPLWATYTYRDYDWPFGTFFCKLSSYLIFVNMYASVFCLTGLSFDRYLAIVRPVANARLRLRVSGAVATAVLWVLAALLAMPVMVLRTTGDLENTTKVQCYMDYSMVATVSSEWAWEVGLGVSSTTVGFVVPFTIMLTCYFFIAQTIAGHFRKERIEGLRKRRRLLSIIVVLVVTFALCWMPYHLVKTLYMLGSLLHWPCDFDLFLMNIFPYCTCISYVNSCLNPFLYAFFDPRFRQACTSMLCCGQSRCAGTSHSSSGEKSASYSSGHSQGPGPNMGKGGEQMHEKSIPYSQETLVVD
Test: Intracellular cAMP accumulation assay (APJ hcAMP, HTRF)
Type: cell-based
Details: HEK293 cells stably expressing human APJ receptor; inhibition of forskolin-mediated cAMP production; read-out: APJ cAMP Potency range
Summary of the method: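 Inhibition of forskolin (2 μM)-driven cAMP, with […], measured by HTRF after 30 min room-temperature compound exposure of stably transfected HEK293 cells. cAMP read from a standard curve; variable-slope fit gives EC50, and maximal inhibition is normalised to (Pyr1)apelin-13 as 100%.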

Row | EC50 [nM] | SMILES
1 | 0.01 to 10 | CC[C@@H](c1cc(F)cc(F)c1)n1c(CCC2CC2)nc(=O)c(Cc2ccc(-c3cccnc3C)cc2)c1O [Example 109, 2-(2-cyclopropylethyl)-1-[(1S)-1-(3,5-difluorophenyl)propyl]-6-hydroxy-5-{[4-(2-methylpyridin-3-yl)phenyl]methyl}-1,4-dihydropyrimidin-4-one]
2 | 0.01 to 10 | CC[C@@H](c1cc(F)cc(F)c1)n1c(CCC2CC2)nc(=O)c(Cc2ccc(-c3ccncc3C)cc2)c1O [Example 110, 2-(2-cyclopropylethyl)-1-[(1S)-1-(3,5-difluorophenyl)propyl]-6-hydroxy-5-{[4-(3-methylpyridin-4-yl)phenyl]methyl}-1,4-dihydropyrimidin-4-one]
3 | 0.01 to 10 | CC[C@@H](c1cc(F)cc(F)c1)n1c(COC(C)C)nc(=O)c(Cc2ccc(-c3cccnc3C)cc2)c1O [Example 111, 1-[(1S)-1-(3,5-difluorophenyl)propyl]-6-hydroxy-5-{[4-(2-methylpyridin-3-yl)phenyl]methyl}-2-[(propan-2-yloxy)methyl]-1,4-dihydropyrimidin-4-one]

The remaining lines, values behind:

Row | SMILES | EC50 [nM]
4 | CCCCc1nc(=O)c(Cc2ccc(C3CC3)cc2)c(O)n1[C@@H](CC)c1cccc(C#N)c1 [Example 101, 3-[(1S)-1-{2-butyl-5-[(4-cyclopropylphenyl)methyl]-6-hydroxy-4-oxo-1,4-dihydropyrimidin-1-yl}propyl]benzonitrile] | 0.01 to 10
5 | CCCCc1nc(=O)c(Cc2ccc(C3CC3)cc2)c(O)n1[C@@H](CC)c1cccc(C#N)c1 [Example 102, 3-[(1S)-1-{2-butyl-5-[(4-cyclopropylphenyl)methyl]-6-hydroxy-4-oxo-1,4-dihydropyrimidin-1-yl}propyl]benzonitrile] | 10 to 100
6 | CCCCc1nc(=O)c(Cc2ccc(-c3ccnc(F)c3C)cc2)c(O)n1[C@@H](CC)c1cccc(F)c1 [Example 103, 2-butyl-5-{[4-(2-fluoro-3-methylpyridin-4-yl)phenyl]methyl}-1-[(1S)-1-(3-fluorophenyl)propyl]-6-hydroxy-1,4-dihydropyrimidin-4-one] | 0.01 to 10
7 | CCCCc1nc(=O)c(Cc2ccc(-c3ccc(F)nc3C)cc2)c(O)n1[C@@H](CC)c1cccc(F)c1 [Example 104, 2-butyl-5-{[4-(6-fluoro-2-methylpyridin-3-yl)phenyl]methyl}-1-[(1S)-1-(3-fluorophenyl)propyl]-6-hydroxy-1,4-dihydropyrimidin-4-one] | 0.01 to 10
8 | CCCCc1nc(=O)c(Cc2ccc(-c3cccnc3C)cc2)c(O)n1[C@@H](CC)c1cccc(F)c1 [Example 105, 2-butyl-1-[(1S)-1-(3-fluorophenyl)propyl]-6-hydroxy-5-{[4-(2-methylpyridin-3-yl)phenyl]methyl}-1,4-dihydropyrimidin-4-one] | 0.01 to 10
9 | CCCCc1nc(=O)c(Cc2ccc(-c3ccncc3C)cc2)c(O)n1[C@@H](CC)c1cccc(F)c1 [Example 106, 2-butyl-1-[(1S)-1-(3-fluorophenyl)propyl]-6-hydroxy-5-{[4-(3-methylpyridin-4-yl)phenyl]methyl}-1,4-dihydropyrimidin-4-one] | 0.01 to 10
10 | CC[C@@H](c1cc(F)cc(F)c1)n1c(CCC2CC2)nc(=O)c(Cc2ccc(-c3ccc(F)nc3C)cc2)c1O [Example 107, 2-(2-cyclopropylethyl)-1-[(1S)-1-(3,5-difluorophenyl)propyl]-5-{[4-(6-fluoro-2-methylpyridin-3-yl)phenyl]methyl}-6-hydroxy-1,4-dihydropyrimidin-4-one] | 0.01 to 10
11 | CC[C@@H](c1cc(F)cc(F)c1)n1c(COC(C)C)nc(=O)c(Cc2ccc(-c3ccnc(F)c3C)cc2)c1O [Example 108, 1-[(1S)-1-(3,5-difluorophenyl)propyl]-5-{[4-(2-fluoro-3-methylpyridin-4-yl)phenyl]methyl}-6-hydroxy-2-[(propan-2-yloxy)methyl]-1,4-dihydropyrimidin-4-one] | 0.01 to 10
